In ChEMBL document CHEMBL1127097, “Tetrazole amino acids as competitive NMDA antagonists” (Bioorg Med Chem Lett, 1993):

How the values were obtained:
[1] = system: Mus musculus; experiment: Minimum effective dose tested by ip administration for its ability to block NMDA induced lethality in mice.; assay type: functional; conditions: read-out: MED
[2] = molecular target: Glutamate [NMDA] receptor; experiment: Tested in vitro for the affinity against NMDA receptor by examining its ability to inhibit [3H]-CGS-19,755 binding; assay type: protein-complex assay
[3] = molecular target: Glutamate [NMDA] receptor; experiment: Tested in vitro for the affinity against NMDA receptor in a cortical wedge assay; assay type: protein-complex assay
[4] = system: Glutamate [NMDA] receptor; experiment: Tested in vitro for the affinity against NMDA receptor in a cortical wedge assay; A- compound acts as antagonist; assay type: functional
[5] = system: Glutamate [NMDA] receptor; experiment: Tested in vitro for the affinity against NMDA receptor in a cortical wedge assay; A- Compound acted as […]; assay type: functional

Row | Compound | minimal effective dose [1] [mg/kg] | IC50 [2] [nM] | IC50 [3] [µM] | IC50 [4] | IC50 [5]
1 | N[C@@H](Cc1nnn[nH]1)C(=O)O | > 160 | 639 | > 100 |  | 
2 | O=C(O)[C@H]1C[C@@H](Cc2nnn[nH]2)CCN1 | 5 | 107 | 4.2 |  | 
3 | O=C(O)C1CN(CCc2nnn[nH]2)CCN1 (centres undefined) | 160 | 781 | 4.7 |  | 
4 | O=C(O)C1CN(Cc2nn[nH]n2)CCN1 (centres undefined) | > 80 | 1670 | 8.2 |  | 
5 | N[C@H](CCCP(=O)(O)O)C(=O)O | 160 | 177 | 3.7 |  | 
6 | O=C(O)[C@@H]1C[C@H](CP(=O)(O)O)CCN1 (single isomer, unassigned) [SELFOTEL] |  | 54 | 1.6 |  | 
7 | Cl.NC(CCCCCCc1nnn[nH]1)C(=O)O (centres undefined) | > 160 | > 10000 | > 100 |  | 
8 | N[C@H](CCc1nnn[nH]1)C(=O)O | > 160 | 925 | 31.6 |  | 
9 | O=C(O)C1CN(CCCc2nnn[nH]2)CCN1 (centres undefined) | 40 | 3150 | 16.3 |  | 
10 | Cl.NC(CCCCc1nnn[nH]1)C(=O)O (centres undefined) | > 160 | 10000 |  | Antagonist | 
11 | O=C(O)C1CN(CCCCc2nnn[nH]2)CCN1 (centres undefined) | > 80 | > 10000 |  |  | 
12 | NC(CCCCCc1nnn[nH]1)C(=O)O (centres undefined) | > 160 | > 10000 | > 100 |  | 
13 | O=C(O)C1CN(CCCP(=O)(O)O)CCN1 (centres undefined) | 2.5 | 220 | 0.6 |  | 
14 | N[C@@H](CCc1nnn[nH]1)C(=O)O | > 160 | 1600 |  |  | Agonist
15 | N[C@H](CCCCCP(=O)(O)O)C(=O)O | 160 | 461 | 11.1 |  | 
16 | Cl.NC(CCCc1nnn[nH]1)C(=O)O (centres undefined) | > 160 | 1050 |  | Antagonist | 
17 | N[C@H](Cc1nnn[nH]1)C(=O)O | > 160 | 685 | > 100 |  | 
